Measured values from paper PMC11475369, “Exploring the Potential of Synthetic Cannabinoids: Modulation of Biological Activity of Normal and Cancerous Human Colon Epithelial Cells” (Cells, 2024).
Values after ≈ are worked out from the molar mass of the structure shown.

Tests used:
[1] = test system: CCD 841 CoTr cells; assay: MTT assay, metabolic activity of CCD 841 CoTr cells; assay type: cell-based, human; conditions: Homo sapiens, CCD-841, 24 h, CCD 841 CoTr colon normal cells, 24 h incubation; read-out: IC50 Values (MTT method)
Description: (§1) The HT29 cell line (ATCC no. HTB-38) (human colon adenocarcinoma) was used in the present study. Cells were cultivated in RPMI 1640 culture medium with 10% fetal calf serum (FCS) (GibcoTM, Paisley, UK), supplemented with antibiotics (100 U/mL penicillin and 100 μg/mL streptomycin) (Sigma, St. Louis, MO, USA). The cell culture was performed in standard conditions, i.e., at 37 °C in a humidified atmosphere with 5% CO2. The CCD 841 CoTr cell line (ATCC no. CRL-1807) (human normal colon epithelium) was cultivated in RPMI 1640 +DMEM (1:1) medium (Sigma, St. Louis, MO, USA) with 10% FCS and the addition of antibiotics. The culture was carried out at 34 °C in a 5% CO2/95% air atmosphere.
(§2) After seeding (1 × 10^5 cells/mL) in a 96-well plate, the cells were incubated for 24 h. Thereafter, the tested compounds (100 μL) at a concentration range of 0–200 μg/mL in the culture medium were added to the wells (100 μL). The incubation lasted for 24 h. After that time, an MTT solution (5 mg/mL, 25 μL/well) was added to each well. The incubation was continued for another 3 h. After the incubation, 10% sodium dodecyl sulfate (SDS) in 0.01 M HCl (100 μL) was added in order to dissolve the purple formazan crystals. Solubilization was carried out overnight. Finally, spectrophotometric measurement was performed at 570 nm using an EL800 Universal Microplate Reader (BioTek Instruments, Winooski, VT, USA).

[2] = test system: HT29 cells; assay: MTT assay, metabolic activity of HT29 cells; assay type: cell-based; conditions: Homo sapiens, HT-29; HT29 colon tumor cells, 24 h incubation; read-out: IC50 Values (MTT method)
Description: as §1, §2

[3] = test system: CCD 841 CoTr cells; assay: Nitric oxide (NOx) release in CCD 841 CoTr culture, Griess method; assay type: cell-based, human; conditions: CCD 841 CoTr normal cells, 0–200 μg/mL, 24 h
Description: In this spectrophotometric method, the stable end products (nitrate and nitrite) were analyzed in the normal and tumor culture supernatants after 24 h of incubation of the cells with the cannabinoids in the concentration range of 0–200 μg/mL. The Griess reaction was applied. This method involves a 2-step reaction, whose product is a red-pink azo dye. The amount of this dye is directly proportional to the amount of NO. The cells were cultured for 24 h in 24-well plates (1 mL/well, density 1 × 10^5 cells/mL); next, after withdrawing the culture fluid, the tested cannabinoids were added to the wells at a volume of 1 mL/well and the incubation was carried out for another 24 h. After the incubation, the culture media were collected and frozen at −80 °C for no longer than 1 month. For calibration and quantitative analysis, the standard curve was prepared using 0.5–25 μM sodium nitrite (NaNO2). Thawed and centrifuged (5000 rpm/5 min.) supernatant samples and the standard were poured into a 96-well flat-bottomed plate at 100 µL/well. Each sample was analyzed in triplicate. Subsequently, 100 µL/well of Griess reagent (1% sulfanilamide/0.1% N-(1-naphthyl)ethylenediamine dihydrochloride) in 3% H3PO4 was added to all wells and incubated at room temperature for 10 min. Finally, the absorbance of the samples was spectrophotometrically read at 570 nm using an EL800 Universal Microplate Reader (BioTek Instruments, Winooski, VT, USA).

[4] = Flow cytometry annexin V-FITC/PI, cell death types in CCD 841 CoTr cells; assay type: cell-based, human; conditions: human, CCD 841 CoTr cells (normal cells), read-out: Percentage of viable cells
Description: (§3) In a further flow cytometric study measuring normal and tumor cell death types, the cells were exposed to the cannabinoids at a concentration of 25 μg/mL for 24 h.
(§4) The annexin V-fluorescein isothiocyanate (FITC)/propidium iodide (PI) apoptosis kit (BD Biosciences, BD Pharmingen™, San Jose, CA, USA) was used for the quantitative analysis of cannabinoid-induced cell death.
(§5) For the analyses, both adhered (after detaching the cells with 10 mM EDTA in PBS w/o Ca^2+ and Mg^2+ ions solution) and floating cells were collected after 24 h of incubation with the tested cannabinoids. After collection, the cells were gently centrifuged (1000 rpm/5 min.). Next, the supernatant was discarded, and the cell pellet was suspended in warm PBS w/o Ca^2+ and Mg^2+ ions and incubated for 5 min. at room temperature. The centrifugation procedure was repeated again and, following the manufacturer’s procedure, the cells were suspended in 100 μL of 1X Annexin V Binding Buffer with 5 μL of FITC Annexin V […] and 5 μL of propidium iodide (PI) (5 mM). The preparation was gently vortexed and incubated at room temperature for 15 min. in the dark. After that time, the cells were subjected to cytometric analysis. Before dosing the cells into the cytometer, 400 μL of 1X Binding Buffer was added. The cells were analyzed using a flow cytometer (BD FACSCalibur) with CellQuest Pro Version 6.0 software within 1 h after the staining was completed.

[5] = test system: CCD 841 CoTr cells; assay: as above; assay type: cell-based, human; conditions: 25 μg/mL, 24 h
Description: as §3, §4, §5

[6] = test system: CCD 841 CoTr cells; assay: Neutral Red (NR) uptake assay, viability of CCD 841 CoTr cells; assay type: cell-based; conditions: Homo sapiens; CCD 841 CoTr colon normal cells, 24 h incubation
Description: as §1
(§6) After seeding (1 × 10^5 cells/mL) in a 96-well plate, the cells were incubated for 24 h. Thereafter, the tested compounds (100 μL) at a concentration range of 0–200 μg/mL in the culture medium were added to the wells (100 μL). The incubation lasted for 24 h. After that time, the culture medium was removed and a 0.4% Neutral Red solution in the culture medium was added to each well. The incubation was continued for another 3 h. After the incubation, the medium with the NR dye was discarded, and 4% paraformaldehyde in 1% CaCl2 was added for cell fixation (200 μL) and incubated for 3 min. Intracellular dye deposits were solubilized using 1% […] in a 50% ethanol solution (100 μL). The plates were then gently shaken (20 min.) at room temperature to dissolve and release the dye from the cells. Finally, spectrophotometric measurement was performed at 540 nm using an EL800 Universal Microplate Reader (BioTek Instruments, Winooski, VT, USA).

[7] = test system: HT29 cells; assay: Flow cytometry annexin V-FITC/PI, cell death types in HT29 cells; assay type: cell-based, human; conditions: HT29, 25 μg/mL, 24 h
Description: as §3, §4, §5

[8] = test system: HT29 cells; assay: Neutral Red (NR) uptake assay, viability of HT29 cells; assay type: cell-based; conditions: Homo sapiens, HT-29; HT29 colon tumor cells, 24 h incubation
Description: as §1, §6

[9] = test system: CCD 841 CoTr cells; assay: Flow cytometry (PI) cell cycle analysis of CCD 841 CoTr cells; assay type: cell-based, human; conditions: 25 μg/mL, 24 h
Description: In the flow cytometric study, we assessed the impact of the cannabinoids at a concentration of 25 μg/mL on the distribution of cell cycle phases in the normal and cancer cells after 24 h incubation. Both adhered, and non-adsorbed (floating) cells were used to perform the analyses. They were collected after 24 h of incubation with the tested cannabinoids and centrifuged (3000 rpm/5 min.). Next, the cell pellet was rinsed and suspended in PBS w/o Ca^2+ and Mg^2+ ions and centrifuged again (3000 rpm/5 min.). The cell pellet was suspended and fixed in 70% ethanol (1 mL). Untreated cells served as a control. The cells were stored at −20 °C for 1 week. After that time, in accordance with the manufacturer protocol, the cells were subjected to the PI staining procedure (PI/RNase Staining Buffer, BD PharmingenTM, BD Biosciences, San Jose, CA, USA). Briefly, 1 mL of PBS w/o Ca^2+ and Mg^2+ ions was added to 1 mL of ethanol and incubated with gentle stirring for 5 min. at room temperature. Next, the cells were centrifuged (3000 rpm/5 min.) and suspended in PBS w/o Ca^2+ and Mg^2+ ions with gentle stirring for 5 min. at room temperature. The cells were centrifuged once again (3000 rpm/5 min.) and the cell pellet was suspended in 500 μL of PI/RNase Staining Buffer. The incubation was carried out for 15 min. at room temperature. Finally, the intensity of the PI fluorescence was measured using FACS Calibur (BD Pharmingen^TM). The obtained data were analyzed using Cell Quest Pro Version 6.0. for the Macintosh operating system (BD Pharmingen^TM). The percentage of cells in the appropriate phases of the cycle was calculated based on all analyzed gated cells. A total of 10,000 events were measured per sample.

## C=C(C)[C@@H]1CCC(C)=C[C@H]1c1c(O)cc(CCCCC)cc1O [CBD, cannabidiol]
[1]
  IC50: 42.6 µg/mL (≈ 135 µM)
[2]
  IC50: 57.5 µg/mL (≈ 183 µM)
[3]
  Effect on release of nitric oxide NOx (in words): increase in NOx levels with increasing concentration
[4]
  viability at 24 h, 25 μg/mL: 79.4 ± 1.18%
[5]
  Cells in late apoptosis, more than in the control: 11.36%
  Cells in necrosis, more than in the control: 1.43%
  Percentage of cells in early apoptosis: 1.97 ± 0.19%
  Percentage of cells in late apoptosis: 16.96 ± 1.26 %
  Percentage of cells in necrosis: 1.71 ± 0.28 %
  Reduction in the number of viable normal cells compared to the control: 12.95%
[6]
  IC50: 48.2 µg/mL (≈ 153 µM)
[7]
  Percentage of cells in early apoptosis: 0.77 ± 0.21%
  Percentage of cells in late apoptosis: 17.03 ± 0.29 %
  Percentage of cells in necrosis: 0.67 ± 0.22%
  Reduction in the number of viable cells compared to the control: 13.62%
[7]; Homo sapiens, HT-29, read-out: Percentage of viable cells
  viability at 25 µg/mL: 81.54 ± 0.28%
[8]
  IC50: 60.5 µg/mL (≈ 192 µM)
[9]
  Increase in the number of cells in the sub-G1 phase compared to the control: 21.88%
  Percentage of cells in G1 phase: 21.89 ± 0.34 %
  Percentage of cells in G2 phase: 14.10 ± 0.19 %
  Percentage of cells in S phase: 16.39 ± 0.04 %
  Percentage of cells in sub-G1 phase: 44.01 ± 0.37 %
